According to US20240246920A1, “TRIAZOLE DERIVATIVES WITH ANTIFUNGAL ACTIVITY” (King's College London, priority 2020, published 2024):
Read-outs that look alike come from different tables or passages of the source.

Tests used:
[1] = system: Aspergillus fumigatus ATCC 10894; test: Aspergillus panel MIC; type: cell-based; details: Table 8
Protocol: (§1) Starter cultures of fungal strains to be tested were grown in 3 mL of RPMI 2% glucose media incubated at 37° C. with shaking at 200 rpm overnight. The culture media used was 900 mL H2O; 10.4 g RPMI 1640 (with L-glutamine and a pH indicator but without bicarbonate); 34.5 g MOPS and 18 g glucose. The pH of the media was adjusted to 7.0 with 1 M sodium hydroxide.
(§2) Solutions of the compound to be tested were prepared by dissolving the compound in DMSO and subsequently into media to the desired concentrations. 200 μL of compound solution was then added to the wells of the 96-well plate using a serial dilution method row-by row of the plate to give a compound concentration gradient across the plate of from 128 μg/mL to 0.25 μg/mL. The last two rows of each plate were control rows containing the culture media alone and the media plus fungi.
(§3) The fungi starter cultures were diluted 1:10 in water in cuvettes. This was then further diluted to an optical density (OD600) of 0.01 in media. 100 μL of the fungi was added to each well giving a starting concentration of fungus of 0.5-5×10^5/mL. One species of fungus was used on each plate. The plates were then held at 37° C. for 24 hours.
(§4) A plate reader was used to measure growth in each well at OD530 nm and the MIC was determined for each test compound. The MIC is defined as the lowest concentration giving rise to inhibition of ≥50% of that of the drug-free control well containing the fungus and media.
(§5) The compound of Example 2 (which corresponds to compound number 2) was tested against a panel of Aspergillus strains using a method analogous to that described above for the Candida Panel.

[2] = system: Aspergillus fumigatus ATCC 16424; test: Aspergillus panel MIC; type: cell-based; details: Table 8
Protocol: as §1, §2, §3, §4, §5

[3] = system: Aspergillus fumigatus ATCC 1028; test: Aspergillus panel MIC; type: cell-based; details: Table 8
Protocol: as §1, §2, §3, §4, §5

[4] = system: Aspergillus fulavus ATCC 204304; test: Aspergillus panel MIC; type: cell-based; details: Table 8
Protocol: as §1, §2, §3, §4, §5

[5] = system: Aspergillus carbonarius ATCC 8740; test: Aspergillus panel MIC; type: cell-based; details: Table 8
Protocol: as §1, §2, §3, §4, §5

[6] = system: C. auris strain TDG1912; test: Galleria mellonella infection model, larval survival; type: in vivo; details: G. mellonella infected with C. auris TDG1912; survival over 120 hours
Protocol: The effects of test compounds in-vivo was assessed using a Galleria mellonella infection model.
G. mellonella were injected in a proleg with 10 μL of C. auris strain TDG1912 (OD4) at a concentration of 1×10^6 cfu/10 μL using a Hamilton syringe and left for 30 minutes to recover from injection and to allow infection to begin. The G. mellonella were then injected with 10 μL of the compound of the invention at either 50 mg/kg (10% DMSO) or 20 mg/kg (4% DMSO) or PBS containing 10% DMSO as an infection-only control. 10 larvae were selected for each treatment, and the experiment was repeated 3 times for the test compound and fluconazole. Survival of larvae was monitored for a 5 day period and results are presented as % survival over 120 hours (see FIG. 1).

[7] = system: C. albicans NCPF3281; test: Candida panel MIC, serial dilution in 96-well plates; type: cell-based, Candida albicans
How it was run: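 Broth microdilution in RPMI 1640 with 2% glucose and MOPS at pH 7.0, compound 128 to 0.25 μg/mL, inoculum 0.5-5×10^5/mL. Incubation 24 h at 37 °C. MIC is the lowest concentration giving ≥50% growth inhibition versus drug-free control, read at OD530.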

OC(Cn1cncn1)(Cn1cncn1)c1ccc(F)cc1F [Fluconazole, fluconazole, reference compound]
Minimum inhibitory concentration Aspergillus fumigatus ATCC 10894 [1]: >64
Minimum inhibitory concentration Aspergillus fumigatus ATCC 16424 [2]: >64
Minimum inhibitory concentration Aspergillus fumigatus ATCC 1028 [3]: >64
Minimum inhibitory concentration Aspergillus fulavus ATCC 204304 [4]: >64
Minimum inhibitory concentration Aspergillus carbonarius ATCC 8740 [5]: >64
Protection against multi-drug resistant C. auris (larval survival) [6]: no significant effect
MIC ([7]; Candida albicans, NCPF3281, read-out: MIC Fluconazole, C. albicans 3281): > 128 µg/mL
MIC ([7]; Candida albicans, NCPF3281, Table 4, common panel, 24 hours, ≥50% inhibition, read-out: MIC C. albicans NCPF3281): ≤ 0.125 µg/mL
MIC ([7]; NCPF3281, Table 6, Candida albicans panel, read-out: MIC C. albicans NCPF3281): ≤ 0.125 µg/mL
